Measured values as given in patent publication US20240391930A1, “SPIROCYCLIC BICYCLIC MODULATORS OF CHOLESTEROL BIOSYNTHESIS AND THEIR USE FOR PROMOTING REMYELINATION” (GENENTECH, INC., priority 2021, published 2024).

Experiments:
[1] = test system: zymostenol accumulation in EpiSC-derived OPCs (EBP); experiment: GC/MS-based sterol profiling (zymostenol accumulation); type: cell-based; details: Mus musculus, 24 hours, 8 doses from 0.15 nM to 333 nM, read-out: Zymostenol GCMS EC50
Protocol: To assess effects of treatments on OPCs, all treatments were assayed in two or more independent platings of epiblast stem cell-derived OPCs (EpiSC). EpiSC-derived OPCs were obtained using in vitro differentiation protocols and culture conditions described previously (Najm et al, 2011, Nature Methods). OPCs were expanded and frozen down in aliquots. OPCs were thawed into growth conditions for at least one passage before use in further assays.
Sterols were monitored using a modified Folch wash protocol (Hubler et al, 2018, Nature). EpiSC-derived OPCs were plated at 100,000 cells per well in PO- and laminin-coated 96-well plates in N2B27 media without growth factors. After 24 hours, cells were rinsed with saline and plates were frozen. Cholesterol-d7 standard was then added to each well before drying under nitrogen stream and derivatization with 55 μl of bis(trimethylsilyl) trifluoroacetamide. After derivatization, 2 μl were analyzed by gas chromatography/mass spectrometry using an Agilent 5973 Network Mass Selective Detector equipped with a 6890 gas chromatograph system and a HP-5MS capillary column (30 m×0.25 mm×[…]). Samples were analyzed in full scan mode using electron impact ionization; ion fragment peaks were integrated to calculate sterol abundance, and quantitation was relative to cholesterol-d7. The following ion fragments were used to quantitate each metabolite: cholesterol-d7 (465), FF-Mas (482), cholesterol (368), zymostenol (458), zymosterol (456), Desmosterol (456, 343), 7-dehydrocholesterol (456, 325), lanosterol (393), lathosterol (458), 14-dehydrozymostenol (456, 351). […] All standards were obtained from Avanti Polar Lipids unless otherwise indicated. Calibration curves were generated by injecting varying concentrations of sterol standards and maintaining a fixed amount of cholesterol-D7. For normalized zymostenol accumulation results, the total amount of zymostenol measured after drug treatment was divided by the total amount of zymostenol accumulated after 24 hr treatment with 100 nM positive control reference.

[2] = target: T1, human emopamil binding protein and human 7-dehydrocholesterol reductase (hEBP-DHCR7) (Homo sapiens, UniProt Q15125); experiment: hEBP-DHCR7 radioligand filtration binding assay; details: membranes of HEK293 co-expressing hEBP and DHCR7; [3H] 2-thia-6-azaspiro[3.4]octane radioligand; 8 doses 0.06 to 5000 nM
T1 construct: expressed in transfected cells; host or cells: HEK 293 cells, transient transfection with 2 DNA constructs
Protocol: Membrane Preparation: human emopamil binding protein and human 7-dehydrocholesterol reductase co-expressing cells were generated by transient transfecting host human embryonic kidney (HEK) 293 cells with 2 DNA constructs containing each protein's coding sequence. Cells were suspension cultured at 37° C. with 5% CO2 in […] 293 Expression Medium (Thermofisher). Whole cell membrane was prepared by harvesting the cell pellet, adding cold membrane buffer (50 mM Tris, pH7.5, lx Roche COMPLETE EDTA-free protease inhibitor cocktail) 10 times volume of the cell pellets weight, lysing cell pellet on ice by using Dounce homogenizer, spinning at 200 g 4° C. for 15 min, collecting supernatant and spinning again at 25000 g 4° C. for 50 min, transferring pellet to Dounce homogenizer, re-suspending pellet by homogenizing in membrane buffer on ice to reach ˜25 mg/mL, then keeping whole cell membrane aliquots at −80° C.
Compounds were prepared in a 96-well U bottom plate using an Echo550 machine and 10 mM compound DMSO stock solution, followed by an 8-dose 5-fold serial dilutions protocol with final testing compound concentration ranging from 0.06 to 5000 nM, with DMSO back fill to 100 nL/well and n=2. […] The UniFilter-96 GF/B plates were pre-treated by adding 50 µl/well of 0.3% (v/v) PEI to UniFilter-96 GF/B plates. The plates were sealed and incubated at 4° C. for 3 hrs. Then, the plates were washed with ice-cold assay buffer 3 times. The radioligand binding assay was prepared by adding assay buffer diluted hEBP-DHCR7 membrane at 66.7 μg/ml×150 l/well into the 96-well compound plate to reach 10 μg membrane per well. Then, the assay buffer diluted [3H]—((S)-6-(2-Methyl-3-(6-(trifluoromethyl)pyridin-3-yl)propyl)-2-thia-6-azaspiro[3.4]octane 2,2-dioxide or (R)-6-(2-Methyl-3-(6-(trifluoromethyl)pyridin-3-yl)propyl)-2-thia-6-azaspiro[3.4]octane 2,2-dioxide) was added at 25 nM×50 l/well. Following this, the plate was centrifuged at 1000 rpm for 30 secs. The plate was then sealed and agitated at 600 rpm at 22° C. for 5 min, and then incubated at 22° C. for 3 hrs. The incubation was stopped by transferring the binding solution to the pre-treated UniFilter-96 GF/B plate, vacuum filtrated, and then washed four times with ice-cold assay buffer. Following this, the plates were dried at 37° C. for 45 min. The plates were then sealed at the bottom. 40 µl/well of scintillation cocktail was added to the plates. A MicroBeta2 microplate counter was then used to read the plate and analyze the data. For reference and test compounds, the results are expressed as % Inhibition, using the normalization equation: N=100−100×(U−C2)/(C1−C2), where U is the unknown value, C1 is the average of high controls, and C2 is the average value of low controls. The IC50 was determined by fitting percentage of inhibition as a function of compound concentrations with Hill equation using XLfit. Results are expressed as hEBP-DHCR7 Ki (uM) in Table 4. Ki was calculated as described above; * indicates isolated isomer or isomers, but that the stereochemistry has not been assigned.

T1 sequence (Q15125 whole entry): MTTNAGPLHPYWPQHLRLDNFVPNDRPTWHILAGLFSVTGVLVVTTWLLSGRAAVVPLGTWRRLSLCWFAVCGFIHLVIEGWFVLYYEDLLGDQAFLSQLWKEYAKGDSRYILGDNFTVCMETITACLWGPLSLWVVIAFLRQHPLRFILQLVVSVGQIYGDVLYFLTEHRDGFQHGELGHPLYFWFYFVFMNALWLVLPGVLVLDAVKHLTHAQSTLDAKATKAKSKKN

With CC(C)n1nc(-c2cccc(C(F)(F)F)n2)cc1[C@H]1[C@@H]2C[C@H](N3CCC[C@]4(CCS(=O)(=O)C4)C3)C[C@@H]21 (single isomer, unassigned) [Compound 83*] as the compound, how does the EC50 [1] read?
Its EC50 is 0.041 µM.

CC(C)n1nc(C(F)(F)F)cc1[C@H]1[C@@H]2C[C@@H](N3CCC[C@]4(CCS(=O)(=O)C4)C3)C[C@@H]21 (single isomer, unassigned) [Compound 93*] was tested. Which EC50 [1] did it give?
The EC50 was 0.24 µM.

Which results are given for O=S1(=O)CC2(CCN([C@@H]3C[C@@H]4[C@H](C3)[C@H]4c3cc(C(F)(F)F)n(CC(F)F)n3)CC2)C1 (single isomer, unassigned) [Compound 96*]?
Ki [2]: 0.438 µM; EC50 [1]: 0.0379 µM

With CC(C)n1nc(C(F)(F)F)cc1[C@H]1[C@@H]2C[C@H](N3CCC[C@]4(CCS(=O)(=O)C4)C3)C[C@@H]21 (single isomer, unassigned) [Compound 95*] as the compound, how does the EC50 [1] read?
Its EC50 is 0.0583 µM.

For CC(C)n1nc(-c2cccc(C(F)(F)F)n2)cc1[C@H]1[C@@H]2C[C@H](N3CCC[C@@]4(CCS(=O)(=O)C4)C3)C[C@@H]21 (single isomer, unassigned) [Compound 82*], which EC50 [1] is on record?
Its EC50 is 0.0036 µM.

Which EC50 [1] does the source give for CC(C)n1nc(-c2cccc(C(F)(F)F)c2)nc1[C@H]1[C@@H]2C[C@@H](N3CCC4(CC3)CS(=O)(=O)C4)C[C@@H]21 [Compound 79, 7-((1R,3s,5S,6r)-6-(1-isopropyl-3-(3-(trifluoromethyl)phenyl)-1H-1,2,4-triazol-5-yl)bicyclo[3.1.0]hexan-3-yl)-2-thia-7-azaspiro[3.5]nonane 2,2-dioxide] here?
The EC50 was 0.003 µM.

For CC(C)n1nc(-c2cccc(C(F)(F)F)n2)cc1[C@H]1[C@@H]2C[C@@H](N3CCC[C@@]4(CCS(=O)(=O)C4)C3)C[C@@H]21 (single isomer, unassigned) [Compound 80*], which EC50 [1] is on record?
Its EC50 is 0.0043 µM.

How did the Ki [2] turn out when O=S1(=O)CC[C@]2(CCCN([C@H]3C[C@@H]4[C@H](C3)[C@H]4c3cc(C(F)(F)F)nn3CC(F)F)C2)C1 (single isomer, unassigned) [Compound 89*] was run?
Its Ki is 0.128 µM.

And the EC50 [1]?
Its EC50 is 0.27 µM.

With CC(C)(C)n1nc(C(F)(F)F)nc1[C@H]1[C@@H]2C[C@@H](N3CCC4(C3)CS(=O)(=O)C4)C[C@@H]21 (single isomer, unassigned) [Compound 77*] as the compound, how does the Ki [2] read?
Its Ki is 0.093 µM.

What about the EC50 [1] of the same compound?
Its EC50 is 0.33 µM.

CC(C)n1nc([C@H]2CC[C@@](O)(C(F)(F)F)CC2)cc1[C@H]1[C@@H]2C[C@@H](N3CCC4(C3)CS(=O)(=O)C4)C[C@@H]21 (single isomer, unassigned) [Compound 105*] was tested. Which Ki [2] did it give?
The Ki was 0.554 µM.

What about the EC50 [1] of the same compound?
Its EC50 is 0.11 µM.

With CCn1nc(-c2ccccn2)cc1[C@H]1[C@@H]2C[C@@H](N3CCC4(C3)CS(=O)(=O)C4)C[C@@H]21 [Compound 72, 6-((1R,3s,5S,6r)-6-(1-Ethyl-3-(pyridin-2-yl)-1H-pyrazol-5-yl)bicyclo[3.1.0]hexan-3-yl)-2-thia-6-azaspiro[3.4]octane 2,2-dioxide] as the compound, how does the Ki [2] read?
The Ki was 0.303 µM.

What about the EC50 [1] of the same compound?
Its EC50 is 0.047 µM.

What does the source list for CC(C)(C)n1nc(-c2cccc(C(F)(F)F)c2)nc1[C@H]1[C@@H]2C[C@H](N3CCC4(C3)CS(=O)(=O)C4)C[C@@H]21 (single isomer, unassigned) [Compound 76]?
Ki [2]: 0.0118 µM; EC50 [1]: 0.0022 µM

For O=S1(=O)CC[C@@]2(CCCN([C@H]3C[C@@H]4[C@H](C3)[C@H]4c3cc(C(F)(F)F)nn3CC(F)F)C2)C1 (single isomer, unassigned) [Compound 88*], which Ki [2] is on record?
The Ki was 0.0189 µM.

What about the EC50 [1] of the same compound?
The EC50 was 0.0077 µM.

What does the source list for CCn1nc(-c2cncc(F)c2)cc1[C@H]1[C@@H]2C[C@H](N3CCC4(CC3)CS(=O)(=O)C4)C[C@@H]21 (single isomer, unassigned) [Compound 67*]?
Ki [2]: 0.171 µM; EC50 [1]: 0.037 µM

With CC(C)n1nc(-c2cccc(C(F)(F)F)c2)nc1[C@H]1[C@@H]2C[C@H](N3CCC4(C3)CS(=O)(=O)C4)C[C@@H]21 [Compound 52, 6-((1R,3r,5S,6r)-6-(1-isopropyl-3-(3-(trifluoromethyl)phenyl)-1H-1,2,4-triazol-5-yl)bicyclo[3.1.0]hexan-3-yl)-2-thia-6-azaspiro[3.4]octane 2,2-dioxide] as the compound, how does the Ki [2] read?
Its Ki is 0.0103 µM.

And the EC50 [1]?
Its EC50 is 0.0024 µM.

Which Ki [2] does the source give for O=S1(=O)CC[C@@]2(CCCN([C@@H]3C[C@@H]4[C@H](C3)[C@H]4c3cc(C(F)(F)F)nn3CC(F)F)C2)C1 (single isomer, unassigned) [Compound 86*] here?
The Ki was 0.0212 µM.

What about the EC50 [1] of the same compound?
The EC50 was 0.013 µM.

How did the Ki [2] turn out when CCn1nc(-c2cncc(F)c2)cc1[C@H]1[C@@H]2C[C@@H](N3CCC4(CC3)CS(=O)(=O)C4)C[C@@H]21 (single isomer, unassigned) [Compound 66*] was run?
Its Ki is 0.0264 µM.

And the EC50 [1]?
The EC50 was 0.035 µM.

How did the Ki [2] turn out when O=S1(=O)CC2(CCN([C@H]3C[C@@H]4[C@H](C3)[C@H]4c3cc(C(F)(F)F)n(CC(F)F)n3)CC2)C1 (single isomer, unassigned) [Compound 97] was run?
The Ki was 0.00685 µM.

And the EC50 [1]?
The EC50 was 0.0221 µM.

With CC(C)n1nc([C@H]2CC[C@@H](C(F)(F)F)CC2)cc1[C@H]1[C@@H]2C[C@@H](N3CCC4(C3)CS(=O)(=O)C4)C[C@@H]21 (single isomer, unassigned) [Compound 106] as the compound, how does the Ki [2] read?
The Ki was 0.0131 µM.

And the EC50 [1]?
The EC50 was 0.0146 µM.

O=S1(=O)CC2(CCN([C@H]3C[C@@H]4[C@H](C3)[C@H]4c3cc(C(F)(F)F)nn3CC(F)F)C2)C1 (single isomer, unassigned) [Compound 91*] was tested. Which Ki [2] did it give?
The Ki was 0.0163 µM.

What about the EC50 [1] of the same compound?
Its EC50 is 0.024 µM.

How did the Ki [2] turn out when O=S1(=O)CC[C@]2(CCCN([C@@H]3C[C@@H]4[C@H](C3)[C@H]4c3cc(C(F)(F)F)nn3CC(F)F)C2)C1 (single isomer, unassigned) [Compound 87*] was run?
The Ki was 0.0946 µM.

What about the EC50 [1] of the same compound?
Its EC50 is over 0.33 µM.

With CC(C)(C)n1nc(C(F)(F)F)nc1[C@H]1[C@@H]2C[C@H](N3CCC4(C3)CS(=O)(=O)C4)C[C@@H]21 (single isomer, unassigned) [Compound 78*] as the compound, how does the Ki [2] read?
Its Ki is 0.0336 µM.

And the EC50 [1]?
Its EC50 is 0.053 µM.

For CC(C)n1nc(C(F)(F)F)cc1[C@H]1[C@@H]2C[C@H](N3CCC[C@@]4(CCS(=O)(=O)C4)C3)C[C@@H]21 (single isomer, unassigned) [Compound 94*], which EC50 [1] is on record?
Its EC50 is 0.00347 µM.

Which Ki [2] does the source give for CCn1nc(-c2cccnc2)cc1[C@H]1[C@@H]2C[C@@H](N3CCC4(C3)CS(=O)(=O)C4)C[C@@H]21 (single isomer, unassigned) [Compound 64*] here?
Its Ki is 0.203 µM.

What about the EC50 [1] of the same compound?
Its EC50 is 0.044 µM.

How did the EC50 [1] turn out when CC(C)n1nc(-c2cccc(C(F)(F)F)n2)cc1[C@H]1[C@@H]2C[C@@H](N3CCC[C@]4(CCS(=O)(=O)C4)C3)C[C@@H]21 (single isomer, unassigned) [Compound 81*] was run?
The EC50 was 0.027 µM.
